Experimental data taken from patent US4510132A, “Compounds for use in antibacterial therapy” (priority 1982, dated 1985).
“Also recorded” adds a separate entry of the source.

Experiments:
[1] = system: Salmonella typhimurium LT2 strain SL 696; assay: MIC of antibiotics in the presence of polymyxin nonapeptide, microtiter plate, S. typhimurium; type: cell-based; conditions: for minimum inhibitory concentration (MIC) of the antibiotic: 18 h; for MIC of fusidic acid: S. typhimurium; for factor by which PMBN sensitized the strain to the antibiotic: S. typhimurium strain SL 696, from Table 1
Description: (§1) Methods. Smooth Salmonella typhimurium LT2 strain SL 696 (Wilkinson et al 1972 J. Gen. Microbiol. 70,527) was used as indicator organism. It was grown in Luria broth (Miller 1972. Experience in molecular genetics, Cold Spring Harbor Laboratory, New York) at 37° C. in a rotary shaker (220 rpm) into early logarithmic growth phase (Klett 40 units, Klett-Summerson colorimeter, red filter) washed with 0.9% NaCl and resuspended in 0.9% NaCl (final optical density 120 Klett units corresponding to approx. 10^9 cells/ml).
(§2) Erythromycin ethylsuccinate stock solution was prepared by dissolving 5.5 mg of erythromycin […] with 2 ml of 96% ethanol whereafter deionized water was added to a final volume of 5.5 ml. Other antibiotics were readily dissolved in deionized water.
(§3) Experimental procedure: Davis minimal growth medium (Sanderson et al, 1972, Bact. Rev. 36,608) containing glucose (1 g/l), casaminoacids (1 g/l. Difco), tryptophan (20 mg/l), and increasing amounts of a particular antibiotic was inoculated with 10^4 cells per ml of a fresh suspension of indicator bacteria. Aliquots (200 μl) of this inoculated medium were pipetted in wells of a microtiter plate (Titertek, CAT NO. 76-213-05, Flow Laboratories, United States). Each well already contained increasing amounts of the particular polycationic agent in 30 μl of 0.9% NaCl. The plates were sealed with adhesive tape and incubated at 37° C. for 18 h.
(§4) Methods. The known compound, polymyxin E nonapeptide (colistin E nonapeptide, Japanese patent specification Nos. 4178/1971 and 51355/1972) having the following formula: [drawing 5] where leu is leucine, thr is threonine, and dab is diaminobutyric acid, was prepared from polymyxin E (colistin) using an enzymatic ficin treatment as described by Chihara et al (Agr. Biol. Chem. 37,2455, 1973).

[2] = system: E. coli strain IH 3080 (018:K1); assay: MIC of antibiotics in the presence of polymyxin nonapeptide, microtiter plate, E. coli; type: cell-based; conditions: for factor by which PMBN sensitized the strain to the antibiotic: E. coli 018:K1 strain IH 3080, from Table 2; for MIC of the antibiotic: E. coli IH 3080
Description: as §1, §2, §3
Methods. The methods were those presented in Example 3 except that E. coli was used as the test organism. The E. coli strain was IH 3080 (018:K1) isolated from the cerebrospinal fluid of a neonate with meningitis.
as §4

[3] = system: E. coli strains IHE 3080, EH 817, IHE 11038, IHE 11055, IHE 11167; assay: Sensitization of E. coli strains to killing by 10% normal human serum (complement); type: cell-based
Description: Methods. The strains used were smooth Salmonella typhirmurium LT2 strain SL 696 (Wilkinson et al 1972 J. Gen. Microbiol. 70, 527) and the following E. coli strains isolated at the National Public Health Institute, Helsinki: IHE 3080 (018,K1), EH 817 (018,K1^- derivative of IHE 3080), IHE 11038 (018,K5), IHE 11055 (02,K1), and IHE 11167 (04,K12). Bacteria were grown in Luria broth (Miller 1972. Experiments in molecular genetics, Cold Spring Harbor Laboratory, New York) at 37° C. in a rotary shaker (220 rpm) into early logaritmic growth phase (Klett 40 units, Klett-Summerson colorimeter, red filter) washed with PBS (phosphate buffered saline, 8.0 g of NaCl, 0.2 g of KCl, 1.44 g of Na2 HPO4 x2H2 O and 0.2 g of KH2 PO4 per liter) and resuspended in PBS, (final optical density 120 Klett units corresponding to approx. 10^9 cells/ml).
Pooled normal human serum from 39 healthy blood donors was used as complement source. It was stored at -70° C. before use.
Experimental procedure: 10% NHS in PBS was inoculated with approx. 300 cells of freshly grown bacteria and pipetted in 200 μl aliquots in wells of mictrotiter plate (Titertek®, CAT NO. 76-213-05). The wells already contained increasing amounts of PMBN in 30 μl of 0.9% NaCl. […] The agar plates were incubated overnight at 37° C. and the developed colonies were counted.

[4] = system: E. coli strain IH 3080 (018:K1); assay: Experimental E. coli infection in mice, PMBN combined with erythromycin; type: in vivo, female NMRI mice; conditions: for Number of dead mice: 10 mice per group
Text: Methods. […] The mice were followed 7 days for deaths.

[5] = PMBN 0 μg/ml, S. typhimurium SL 696
[6] = PMBN 0.3 μg/ml, S. typhimurium SL 696
[7] = PMBN 1 μg/ml, S. typhimurium SL 696
[8] = PMBN 3 μg/ml, S. typhimurium SL 696
[9] = PMBN 10 μg/ml, S. typhimurium SL 696
[10] = PMBN 30 μg/ml, S. typhimurium SL 696

Compound	minimum inhibitory concentration (MIC) of the antibiotic [1, 5]	minimum inhibitory concentration (MIC) of the antibiotic [1, 6]	minimum inhibitory concentration (MIC) of the antibiotic [1, 7]	minimum inhibitory concentration (MIC) of the antibiotic [1, 8]	minimum inhibitory concentration (MIC) of the antibiotic [1, 9]	minimum inhibitory concentration (MIC) of the antibiotic [1, 10]	factor by which PMBN sensitized the strain to the antibiotic [1]	factor by which PMBN sensitized the strain to the antibiotic [2]	MIC of the antibiotic ([2]; PMBN 0 μg/ml)	MIC of the antibiotic ([2]; PMBN 0.3 μg/ml)	MIC of the antibiotic ([2]; PMBN 1 μg/ml)	MIC of the antibiotic ([2]; PMBN 3 μg/ml)	MIC of the antibiotic ([2]; PMBN 10 μg/ml)	further results
polymyxin B nonapeptide [PMBN]	–	–	–	–	–	–	–	–	–	–	–	–	–	concentration of PMBN required to sensitize the bacteria to most antibiotics by a factor of 10-30 ([1]; S. typhimurium SL 696): 1-3 μg/ml; amount of PMBN sufficient to sensitize E. coli to erythromycin and fusidic acid by a factor of 30 ([2]; E. coli): 0.3 µg; concentration of PMBN that sensitized the strains to killing by 10% NHS ([3]; E. coli strains, 10% normal human serum, 2 h): 0.3 µg/mL; bactericidal action of serum in the presence of PMBN after inactivation of complement ([3]; complement destroyed by heat (30 min at 56° C.) or zymosan A): the serum lost its capacity to kill bacteria; also recorded: NHS lost its bactericidal, PMBN-dependent action
CC(=O)O[C@H]1C[C@@]2(C)[C@@H](C[C@@H](O)[C@H]3[C@@]4(C)CC[C@@H](O)[C@@H](C)[C@@H]4CC[C@@]32C)/C1=C(\CCC=C(C)C)C(=O)O [Fusidic acid, fusidic acid]	300	100	30	30	10	≥ 3	≥ 100 times	100 times	100 µg/mL	3 µg/mL	3 µg/mL	3 µg/mL	1 µg/mL	MIC of fusidic acid ([1]; PMEN 0 μg/ml): 300; MIC of fusidic acid ([1]; PMEN 0.3 μg/ml): 100; MIC of fusidic acid ([1]; PMEN 1.0 μg/ml): 30; MIC of fusidic acid ([1]; PMEN 3.0 μg/ml): 10; MIC of fusidic acid ([1]; PMEN 10 μg/ml): 3; MIC of fusidic acid ([1]; PMEN 30 μg/ml): 1; MIC of fusidic acid ([2]; PMEN 0 μg/ml, E. coli): 100; MIC of fusidic acid ([2]; PMEN 0.3 μg/ml, E. coli): 10; MIC of fusidic acid ([2]; PMEN 1.0 μg/ml, E. coli): 10; MIC of fusidic acid ([2]; PMEN 3.0 μg/ml, E. coli): 3; MIC of fusidic acid ([2]; PMEN 10 μg/ml, E. coli): 3; MIC of fusidic acid ([2]; PMEN 30 μg/ml, E. coli): 1
CO[C@@H]1[C@@H](OC(N)=O)[C@@H](O)[C@H](Oc2ccc3c(O)c(NC(=O)c4ccc(O)c(CC=C(C)C)c4)c(=O)oc3c2C)OC1(C)C [Novobiocin, novobiocin]	≥ 100	10	3	3	1	1	≥ 100 times	10 times	30 µg/mL	10 µg/mL	10 µg/mL	3 µg/mL	3 µg/mL	–
CCC[C@@H]1C[C@@H](C(=O)N[C@@H]([C@H]2O[C@H](SC)[C@H](O)[C@@H](O)[C@H]2O)[C@H](C)Cl)N(C)C1.Cl [Clindamycin, clindamycin hydrochloride]	–	–	–	–	–	–	–	–	30 µg/mL	3 µg/mL	3 µg/mL	3 µg/mL	3 µg/mL	–
CCOc1ccc2ccccc2c1C(=O)N[C@@H]1C(=O)N2[C@@H]1SC(C)(C)[C@@H]2C(=O)O [Nafcillin, nafcillin]	≥ 1000	≥ 1000	100	100	30	30	≥ 30 times	–	–	–	–	–	–	–
Cc1onc(-c2ccccc2Cl)c1C(=O)N[C@@H]1C(=O)N2[C@@H]1SC(C)(C)[C@@H]2C(=O)O [Cloxacillin, cloxacillin]	≥ 1000	300	100	100	30	30	≥ 30 times	100 times	> 300 µg/mL	100 µg/mL	100 µg/mL	30 µg/mL	30 µg/mL	–
CCOC(=O)CCC(=O)O[C@H]1[C@H](O[C@@H]2[C@@H](C)[C@H](O[C@H]3C[C@@](C)(OC)[C@@H](O)[C@H](C)O3)[C@@H](C)C(=O)O[C@H](CC)[C@@](C)(O)[C@H](O)[C@@H](C)C(=O)[C@H](C)C[C@@]2(C)O)O[C@H](C)C[C@@H]1N(C)C [Erythromycin, erythromycin ethylsuccinate]	≥ 100	30	10	10	3	3	≥ 30 times	≥ 100 times	30 µg/mL	1 µg/mL	1 µg/mL	1 µg/mL	1 µg/mL	Number of dead mice ([4]; day 1 after infection, erythromycin 10 mg/kg i.p., PMBN 10 mg/kg s.c.): 7; Number of dead mice ([4]; day 2 after infection): 8; Number of dead mice ([4]; day 3 after infection): 9; Number of dead mice ([4]; day 4 after infection): 9; Number of dead mice ([4]; day 5 after infection): 9; Number of dead mice ([4]; day 6 after infection): 9; Number of dead mice ([4]; day 7 after infection): 9; therapeutic action against the E. coli infection ([4]; mice, erythromycin 10 mg/kg, PMBN 10 mg/kg): without any therapeutic action
CC1(C)S[C@@H]2[C@H](NC(=O)Cc3ccccc3)C(=O)N2[C@H]1C(=O)O [Benzylpenicillin, benzylpenicillin]	10	10	10	3	3	1	10 times	3 times	10 µg/mL	10 µg/mL	10 µg/mL	3 µg/mL	3 µg/mL	–
CO[C@H]1/C=C/O[C@@]2(C)Oc3c(C)c(O)c4c(O)c(c(/C=N/N5CCN(C)CC5)c(O)c4c3C2=O)NC(=O)/C(C)=C\C=C\[C@H](C)[C@H](O)[C@@H](C)[C@@H](O)[C@@H](C)[C@H](OC(C)=O)[C@@H]1C [Rifampicin]	–	–	–	–	–	–	–	100 times	3 µg/mL	3 µg/mL	0.1 µg/mL	0.03 µg/mL	0.03 µg/mL	–
